In ChEMBL document CHEMBL4425161, “1α,2α-Epoxy-3β-hydroxy oleanolic acid derivatives regulation of the metabolism, haemolysis and β-lactamase gene expression in vitro and their structure-microbicidal activity relationship” (2016):
Converted amounts (≈) assume the structure as drawn. The source made the active and inactive calls. The calls are words filed in the database; no cut-off is given here.

Columns and labels:
Escherichia coli [1] = assay: Antibacterial activity against Escherichia coli ATCC 25922 assessed as bacterial growth inhibition at 50 umol/L after 8 hrs by turbidimetric plate reader method; type: functional, organism-based
Bacillus subtilis [2] = assay: Antibacterial activity against Bacillus subtilis ATCC 6051 assessed as bacterial growth inhibition at 50 umol/L after 8 hrs by turbidimetric plate reader method; type: functional, organism-based
Klebsiella pneumoniae [3] = assay: Antibacterial activity against Klebsiella pneumoniae ATCC BAA-1705 assessed as bacterial growth inhibition at 50 umol/L after 8 hrs by turbidimetric plate reader method; type: functional, organism-based
Acinetobacter baumannii [4] = assay: Antibacterial activity against Acinetobacter baumannii ATCC BAA-1710D assessed as bacterial growth inhibition at 50 umol/L after 8 hrs by turbidimetric plate reader method; type: functional, organism-based
Acinetobacter baumannii [5] = assay: Antibacterial activity against Acinetobacter baumannii ATCC BAA-1710D assessed as bacterial growth inhibition after 8 hrs by turbidimetric plate reader method; type: functional
Escherichia coli [6] = assay: Antibacterial activity against Escherichia coli ATCC 25922 assessed as bacterial growth inhibition after 8 hrs by turbidimetric plate reader method; type: functional; conditions: for MBC: ATCC 25922, 8 h
Bacillus subtilis [7] = assay: Antibacterial activity against Bacillus subtilis ATCC 6051 assessed as bacterial growth inhibition after 8 hrs by turbidimetric plate reader method; type: functional; conditions: for MBC: ATCC 6051, 8 h
Klebsiella pneumoniae [8] = assay: Antibacterial activity against Klebsiella pneumoniae ATCC BAA-1705 assessed as bacterial growth inhibition after 8 hrs by turbidimetric plate reader method; type: functional; conditions: for MBC: ATCC BAA-1705, 8 h
Acinetobacter baumannii [9] = assay: Upregulation of VEB gene expression in Acinetobacter baumannii ATCC BAA-1710D at 50 umol/L after 8 hrs by real time RT-PCR; type: functional, organism-based
Acinetobacter baumannii [10] = assay: Upregulation of CARB gene expression in Acinetobacter baumannii ATCC BAA-1710D at 50 umol/L after 8 hrs by real time RT-PCR; type: functional, organism-based
Acinetobacter baumannii [11] = assay: Upregulation of TEM gene expression in Acinetobacter baumannii ATCC BAA-1710D at 50 umol/L after 8 hrs by real time RT-PCR; type: functional, organism-based
Acinetobacter baumannii [12] = assay: Downregulation of GES gene expression in Acinetobacter baumannii ATCC BAA-1710D at 50 umol/L after 8 hrs by real time RT-PCR; type: functional, organism-based
Acinetobacter baumannii [13] = assay: Downregulation of PER gene expression in Acinetobacter baumannii ATCC BAA-1710D at 50 umol/L after 8 hrs by real time RT-PCR; type: functional, organism-based
Acinetobacter baumannii [14] = assay: Upregulation of SHV gene expression in Acinetobacter baumannii ATCC BAA-1710D at 50 umol/L after 8 hrs by real time RT-PCR; type: functional, organism-based
Acinetobacter baumannii [15] = assay: Upregulation of VEB gene expression in Acinetobacter baumannii ATCC BAA-1710D at 50 umol/L after 8 hrs by semi-quantitative RT-PCR; type: functional, organism-based
Acinetobacter baumannii [16] = assay: Upregulation of CARB gene expression in Acinetobacter baumannii ATCC BAA-1710D at 50 umol/L after 8 hrs by semi-quantitative RT-PCR; type: functional, organism-based
Acinetobacter baumannii [17] = assay: Upregulation of TEM gene expression in Acinetobacter baumannii ATCC BAA-1710D at 50 umol/L after 8 hrs by semi-quantitative RT-PCR; type: functional, organism-based
Acinetobacter baumannii [18] = assay: Downregulation of GES gene expression in Acinetobacter baumannii ATCC BAA-1710D at 50 umol/L after 8 hrs by semi-quantitative RT-PCR; type: functional, organism-based
Acinetobacter baumannii [19] = assay: Downregulation of PER gene expression in Acinetobacter baumannii ATCC BAA-1710D at 50 umol/L after 8 hrs by semi-quantitative RT-PCR; type: functional, organism-based
Acinetobacter baumannii [20] = assay: Upregulation of SHV gene expression in Acinetobacter baumannii ATCC BAA-1710D at 50 umol/L after 8 hrs by semi-quantitative RT-PCR; type: functional, organism-based
Escherichia coli [21] = assay: Upregulation of cysB gene expression in Escherichia coli ATCC 25922 at 50 umol/L after 8 hrs by real time RT-PCR; type: functional, organism-based
Escherichia coli [22] = assay: Upregulation of acrA gene expression in Escherichia coli ATCC 25922 at 50 umol/L after 8 hrs by real time RT-PCR relative to gapA; type: functional, organism-based
Escherichia coli [23] = assay: Downregulation of tsh gene expression in Escherichia coli ATCC 25922 at 50 umol/L after 8 hrs by real time RT-PCR; type: functional, organism-based
Escherichia coli [24] = assay: Downregulation of iroD gene expression in Escherichia coli ATCC 25922 at 50 umol/L after 8 hrs by real time RT-PCR; type: functional, organism-based
Escherichia coli [25] = assay: Upregulation of cysB gene expression in Escherichia coli ATCC 25922 at 50 umol/L after 8 hrs by semi-quantitative RT-PCR; type: functional, organism-based
Escherichia coli [26] = assay: Upregulation of acrA gene expression in Escherichia coli ATCC 25922 at 50 umol/L after 8 hrs by semi-quantitative RT-PCR; type: functional, organism-based
Escherichia coli [27] = assay: Downregulation of tsh gene expression in Escherichia coli ATCC 25922 at 50 umol/L after 8 hrs by semi-quantitative RT-PCR; type: functional, organism-based
Escherichia coli [28] = assay: Downregulation of iroD gene expression in Escherichia coli ATCC 25922 at 50 umol/L after 8 hrs by semi-quantitative RT-PCR; type: functional, organism-based
Bacillus subtilis [29] = assay: Downregulation of yqhC gene expression in Bacillus subtilis ATCC 6051 at 50 umol/L after 8 hrs by real time RT-PCR; type: functional, organism-based
Bacillus subtilis [30] = assay: Downregulation of yhdT gene expression in Bacillus subtilis ATCC 6051 at 50 umol/L after 8 hrs by real time RT-PCR; type: functional, organism-based
Bacillus subtilis [31] = assay: Downregulation of yqhB gene expression in Bacillus subtilis ATCC 6051 at 50 umol/L after 8 hrs by real time RT-PCR; type: functional, organism-based
Bacillus subtilis [32] = assay: Downregulation of yqhC gene expression in Bacillus subtilis ATCC 6051 at 50 umol/L after 8 hrs by semi-quantitative RT-PCR; type: functional, organism-based
Bacillus subtilis [33] = assay: Downregulation of yhdT gene expression in Bacillus subtilis ATCC 6051 at 50 umol/L after 8 hrs by semi-quantitative RT-PCR; type: functional, organism-based
Bacillus subtilis [34] = assay: Downregulation of yqhB gene expression in Bacillus subtilis ATCC 6051 at 50 umol/L after 8 hrs by semi-quantitative RT-PCR; type: functional, organism-based
Klebsiella pneumoniae [35] = assay: Upregulation of VEB gene expression in Klebsiella pneumoniae ATCC BAA-1705 at 50 umol/L after 8 hrs by real time RT-PCR; type: functional, organism-based
Klebsiella pneumoniae [36] = assay: Upregulation of PER-2 gene expression in Klebsiella pneumoniae ATCC BAA-1705 at 50 umol/L after 8 hrs by real time RT-PCR; type: functional, organism-based
Klebsiella pneumoniae [37] = assay: Upregulation of GES gene expression in Klebsiella pneumoniae ATCC BAA-1705 at 50 umol/L after 8 hrs by real time RT-PCR; type: functional, organism-based
Klebsiella pneumoniae [38] = assay: Upregulation of GES gene expression in Klebsiella pneumoniae ATCC BAA-1705 at 50 umol/L after 8 hrs by semi-quantitative RT-PCR; type: functional, organism-based
Klebsiella pneumoniae [39] = assay: Upregulation of VEB gene expression in Klebsiella pneumoniae ATCC BAA-1705 at 50 umol/L after 8 hrs by semi-quantitative RT-PCR; type: functional, organism-based
Klebsiella pneumoniae [40] = assay: Upregulation of PER-2 gene expression in Klebsiella pneumoniae ATCC BAA-1705 at 50 umol/L after 8 hrs by semi-quantitative RT-PCR; type: functional, organism-based
Klebsiella pneumoniae [41] = assay: Upregulation of IMP gene expression in Klebsiella pneumoniae ATCC BAA-1705 at 50 umol/L after 8 hrs by real time RT-PCR; type: functional, organism-based
Klebsiella pneumoniae [42] = assay: Upregulation of IMP gene expression in Klebsiella pneumoniae ATCC BAA-1705 at 50 umol/L after 8 hrs by semi-quantitative RT-PCR; type: functional, organism-based
Klebsiella pneumoniae [43] = assay: Downregulation of ldhD gene expression in Klebsiella pneumoniae ATCC BAA-1705 at 50 umol/L after 8 hrs by real time RT-PCR; type: functional, organism-based
Klebsiella pneumoniae [44] = assay: Downregulation of ldhD gene expression in Klebsiella pneumoniae ATCC BAA-1705 at 50 umol/L after 8 hrs by semi-quantitative RT-PCR; type: functional, organism-based

Compound: CO[C@H]1[C@@H]2O[C@@H]2[C@]2(C)[C@H]3CC=C4[C@@H]5CC(C)(C)CC[C@]5(C(=O)O)CC[C@@]4(C)[C@]3(C)CC[C@H]2C1(C)C
- growth inhibition (GI) (Escherichia coli [1]): inactive
- growth inhibition (GI) (Bacillus subtilis [2]): inactive
- growth inhibition (GI) (Klebsiella pneumoniae [3]): inactive
- growth inhibition (GI) (Acinetobacter baumannii [4]): inactive

Compound: NC[C@H]1O[C@H](O[C@H]2[C@H](O)[C@@H](O[C@H]3O[C@H](CO)[C@@H](O)[C@H](N)[C@H]3O)[C@H](N)C[C@@H]2N)[C@H](O)[C@@H](O)[C@@H]1O [KANAMYCIN]
- MBC (Acinetobacter baumannii [5]): 1.6 µM (≈ 0.775 µg/mL)

Compound: CC(=O)O[C@H]1[C@@H]2O[C@@H]2[C@]2(C)[C@H]3CC=C4[C@@H]5CC(C)(C)CC[C@]5(C(=O)O)CC[C@@]4(C)[C@]3(C)CC[C@H]2C1(C)C
- growth inhibition (GI) (Acinetobacter baumannii [4]): Active
- growth inhibition (GI) (Escherichia coli [6]): Dose-dependent effect
- growth inhibition (GI) (Bacillus subtilis [7]): Dose-dependent effect
- growth inhibition (GI) (Klebsiella pneumoniae [8]): Dose-dependent effect
- MBC (Acinetobacter baumannii [5]): 2.8 µM (≈ 1.44 µg/mL)
- growth inhibition (GI) (Acinetobacter baumannii [5]): Dose-dependent effect
- Activity (Acinetobacter baumannii [9]): Active
- Activity (Acinetobacter baumannii [10]): Active
- Activity (Acinetobacter baumannii [11]): Active
- Activity (Acinetobacter baumannii [12]): Active
- Activity (Acinetobacter baumannii [13]): Active
- Activity (Acinetobacter baumannii [14]): Active
- Activity (Acinetobacter baumannii [15]): Active
- Activity (Acinetobacter baumannii [16]): Active
- Activity (Acinetobacter baumannii [17]): Active
- Activity (Acinetobacter baumannii [18]): Active
- Activity (Acinetobacter baumannii [19]): Active
- Activity (Acinetobacter baumannii [20]): Active

Compound: CN[C@@H]1[C@H](O[C@H]2[C@H](O[C@H]3[C@H](O)[C@@H](O)[C@H](N=C(N)N)[C@@H](O)[C@@H]3N=C(N)N)O[C@@H](C)[C@]2(O)C=O)O[C@@H](CO)[C@H](O)[C@H]1O [STREPTOMYCIN]
- MBC (Bacillus subtilis [7]): 2.1 µM (≈ 1.22 µg/mL)
- MBC (Klebsiella pneumoniae [8]): 1.3 µM (≈ 0.756 µg/mL)

Compound: CC1(C)CC[C@]2(C(=O)OCc3ccccc3C#N)CC[C@]3(C)C(=CC[C@@H]4[C@@]5(C)[C@H]6O[C@H]6[C@H](O)C(C)(C)[C@@H]5CC[C@]43C)[C@@H]2C1
- growth inhibition (GI) (Escherichia coli [1]): Active
- growth inhibition (GI) (Bacillus subtilis [2]): Active
- growth inhibition (GI) (Escherichia coli [6]): Dose-dependent effect
- MBC (Escherichia coli [6]): 5.3 µM (≈ 3.1 µg/mL)
- growth inhibition (GI) (Bacillus subtilis [7]): Dose-dependent effect
- MBC (Bacillus subtilis [7]): 2 µM (≈ 1.17 µg/mL)
- growth inhibition (GI) (Klebsiella pneumoniae [8]): Dose-dependent effect
- growth inhibition (GI) (Acinetobacter baumannii [5]): Dose-dependent effect
- Activity (Escherichia coli [21]): Active
- Activity (Escherichia coli [22]): Active
- Activity (Escherichia coli [23]): Active
- Activity (Escherichia coli [24]): Active
- Activity (Escherichia coli [25]): Active
- Activity (Escherichia coli [26]): Active
- Activity (Escherichia coli [27]): Active
- Activity (Escherichia coli [28]): Active
- Activity (Bacillus subtilis [29]): Active
- Activity (Bacillus subtilis [30]): Active
- Activity (Bacillus subtilis [31]): Active
- Activity (Bacillus subtilis [32]): Active
- Activity (Bacillus subtilis [33]): Active
- Activity (Bacillus subtilis [34]): Active

Compound: CCCOC(=O)[C@]12CCC(C)(C)C[C@H]1C1=CC[C@@H]3[C@@]4(C)[C@H]5O[C@H]5[C@H](O)C(C)(C)[C@@H]4CC[C@@]3(C)[C@]1(C)CC2
- growth inhibition (GI) (Klebsiella pneumoniae [3]): Active
- growth inhibition (GI) (Escherichia coli [6]): Dose-dependent effect
- growth inhibition (GI) (Bacillus subtilis [7]): Dose-dependent effect
- growth inhibition (GI) (Klebsiella pneumoniae [8]): Dose-dependent effect
- MBC (Klebsiella pneumoniae [8]): 1.5 µM (≈ 0.769 µg/mL)
- growth inhibition (GI) (Acinetobacter baumannii [5]): Dose-dependent effect
- Activity (Klebsiella pneumoniae [35]): Active
- Activity (Klebsiella pneumoniae [36]): Active
- Activity (Klebsiella pneumoniae [37]): inactive
- Activity (Klebsiella pneumoniae [38]): inactive
- Activity (Klebsiella pneumoniae [39]): Active
- Activity (Klebsiella pneumoniae [40]): Active
- Activity (Klebsiella pneumoniae [41]): Active
- Activity (Klebsiella pneumoniae [42]): Active
- Activity (Klebsiella pneumoniae [43]): Active
- Activity (Klebsiella pneumoniae [44]): Active

Compound: CC1(C)S[C@@H]2[C@H](NC(=O)[C@H](N)c3ccccc3)C(=O)N2[C@H]1C(=O)O [AMPICILLIN]
- MBC (Escherichia coli [6]): 1.8 µM (≈ 0.629 µg/mL)

Compound: CCOC(=O)[C@]12CCC(C)(C)C[C@H]1C1=CC[C@@H]3[C@@]4(C)[C@H]5O[C@H]5[C@H](O)C(C)(C)[C@@H]4CC[C@@]3(C)[C@]1(C)CC2
- growth inhibition (GI) (Klebsiella pneumoniae [3]): Active
- growth inhibition (GI) (Escherichia coli [6]): Dose-dependent effect
- growth inhibition (GI) (Bacillus subtilis [7]): Dose-dependent effect
- growth inhibition (GI) (Klebsiella pneumoniae [8]): Dose-dependent effect
- MBC (Klebsiella pneumoniae [8]): 1.8 µM (≈ 0.898 µg/mL)
- growth inhibition (GI) (Acinetobacter baumannii [5]): Dose-dependent effect
- Activity (Klebsiella pneumoniae [35]): Active
- Activity (Klebsiella pneumoniae [36]): Active
- Activity (Klebsiella pneumoniae [37]): inactive
- Activity (Klebsiella pneumoniae [38]): inactive
- Activity (Klebsiella pneumoniae [39]): Active
- Activity (Klebsiella pneumoniae [40]): Active
- Activity (Klebsiella pneumoniae [41]): Active
- Activity (Klebsiella pneumoniae [42]): Active
- Activity (Klebsiella pneumoniae [43]): Active
- Activity (Klebsiella pneumoniae [44]): Active
